# Experimental data published in patent US7294189B2, “Wax emulsion preservative compositions and method of manufacture” (Hexion Specialty Chemicals, Inc., priority 2002, dated 2007).
# “Also recorded” adds a separate entry of the source.
# Legend:
# [1] = system: biological growth; test: Biological growth on particle board coupons (urea-formaldehyde binder) made with test emulsions, placed in various environments; conditions: emulsions with 1% or 2% thiabendazole by weight of the wax; emulsion 0.4% solids by weight of furnish; soaked and non-soaked coupons; constant humidity, rooftop, warehouse, laboratory; after six weeks (control coupons showed growth after first week)
# Description: In other tests, test emulsions as described above was used to prepare sample particle board coupons comprising a urea-formaldehyde binder. Some test emulsions contained 1% thiabendazole, others 2%, by weight of the wax in the emulsions. The emulsion was added to the furnish from which the coupons were formed in an amount of 0.4% solids, by weight of the furnish. Some of the coupons were soaked in water for twenty-four hours before testing. For the test, various soaked and non-soaked coupons were placed in various environments including constant humidity conditions (72° F. (22.2° C.), 72% relative humidity (RH)), outdoor rooftop environmental conditions (exposed to air but shielded from direct impingement by precipitation); and indoors in an uncontrolled warehouse and in a laboratory environment, beside a water bath. Control coupons prepared and treated similarly were also place in these environments.
# [2] = system: mold cultures; test: ASTM D3273 four week mold resistance test of gypsum product made with wax emulsion containing thiabendazole; conditions: 0.2% thiabendazole post-added to wax emulsion; closed chamber with potting soil and mold cultures, about 90° F., relative humidity 95% to 98%; first weeks of the test
# Description: A wax emulsion formulation was prepared with the following components: G Wax (a paraffin wax) 33%, Montan wax 3.3%, alkyl phenol 0.5%, Disal 0.5%, potassium hydroxide 0.75%, ammonium hepta molybdonate 0.01%, starch 0.09%, polyfon H (lignosulfonic acid, sodium salt) 0.5%, water 61.35%. To this wax emulsion was post-added 0.2% thiabendazole, commercially available from Supreme Chemical of Cumming, Ga. under the trade designation MC-2. The wax emulsion was used to prepare a gypsum product. The resulting gypsum product was tested according to ASTM D3273. During this four week test, a sample of the subject material, such as a gypsum board, is placed in a closed chamber along with potting soil and mold cultures at a constant temperature of about 90° F. (32.2° C.) and relative humidity of 95% to 98%. The condition of the test sample is monitored weekly to determine the extent, if any, of mold growth.
smiles,measurement,setting,value
"c1ccc2[nH]c(-c3cscn3)nc2c1 [thiabendazole, 2-(4′-thiazolyl) benzimidazole]",visible biological growth on particle board coupons,[1],none of the sample coupons made with thiabendazole had any visible growth
same,biological (mold) growth on gypsum product,[2],effective in inhibiting the growth of biological agents on gypsum board; also recorded: no biological growth
